{
  "source": "patent US20100227827A1",
  "about": "“METHOD OF INCREASING TRYPTOPHAN AND NICOTINAMIDE LEVELS IN VIVO” (priority 2006, published 2010)",
  "system": "serum protein thiols",
  "test": "Serum protein thiols as in vivo anti-oxidant indicator",
  "design": "species or system human",
  "details": "for Increase in serum protein thiols (ratio): after to before (baseline)",
  "excerpt": "The following detailed description was designed to standardize the estimation of the in vivo level of serum protein thiols that have been used previously to estimate DNA repair capacity. When a blood sample is collected and the serum isolated, then the level of serum protein thiols is an estimate of the concentration between thiols and disulfides existing in protein structures that are in turn equilibrated to the existing oxidant environment in vivo. Thus, serum protein thiol analyses are an in vivo estimate of the antioxidant status of an individual that is in turn regulated by DNA repair.\nA stock solution of the colorimetric agent 5,5′-dithio-bis-(2-nitrobenzoic acid (DTNB), was prepared using: 9.5 mg/ml solid DTNB, 0.1 M K2HPO4, and 17.5 mM EDTA. pH was adjusted to 7.5 and then diluted to desired volume. Working DTNB solution was prepared by diluting DTNB stock solution 1:50 with saline. Solutions of L-cysteine were prepared and a standard curve was constructed desirably be in the 0-100 μM range. Stock solutions were diluted as required and absorbance was measured using 96-well flat-bottom microtiter plate. 50 μL-cysteine solution with 200 μl working DTNB solution was placed per well. […]\nA DTNB blank (50 μl saline+200 μl DTNB) was made. Absorbance values were made at 412 nm with a microtiter plate scanner spectrophotometer. The average of every concentration was calculated and DTNB blank was subtracted from every value. Using a plot of concentration (x-axis) vs. absorbance (y-axis) by comparison with standard cysteine solutions the cysteine concentration was determined.\nA saturated ammonium sulfate solution was prepared. […] Absorbance in microtiter plate scanner set at 412 nm was measured making sure that bubbles in the well are avoided.\nThe average was calculated for the DTNB blank and the saline blank. […]\nThen the corrected serum value was subtracted from the corrected sample value. This value was the final serum thiol value expressed as absorbance at […]. […]\nAltogether this was a 20 fold dilution (4×5=20). […] Thiols were hereby measured in nmoles/0.72 ml.",
  "data": [
    {"molecule": "O=C(O)[C@]1(O)C[C@@H](O)[C@@H](O)[C@H](O)C1", "note": "[Aqua Bimini™, quinic acid ammonium chelate]", "values": [
      {"measurement": "Increase in serum protein thiols (ratio)", "setting": "3000 mg/day for 36 days", "result": 1.26},
      {"measurement": "Increase in serum protein thiols (ratio)", "setting": "HL 1500 mg/day for 36 days", "result": 1.22},
      {"measurement": "reduced thiols (—SH) in serum proteins", "setting": "supplementation 1500 or 3000 mg/day, treatment and follow-up versus baseline", "result": "significant increase"}
    ]}
  ]
}
